The results in this text go back to publication PMC7559834, “Functional and Pharmacological Comparison of Human, Mouse, and Rat Organic Cation Transporter 1 toward Drug and Pesticide Interaction” (International Journal of Molecular Sciences, 2020).

For series [1], the target named is T1, human OCT1 (hOCT1) (Homo sapiens, UniProt O15245).
T1 sequence (O15245 1-554): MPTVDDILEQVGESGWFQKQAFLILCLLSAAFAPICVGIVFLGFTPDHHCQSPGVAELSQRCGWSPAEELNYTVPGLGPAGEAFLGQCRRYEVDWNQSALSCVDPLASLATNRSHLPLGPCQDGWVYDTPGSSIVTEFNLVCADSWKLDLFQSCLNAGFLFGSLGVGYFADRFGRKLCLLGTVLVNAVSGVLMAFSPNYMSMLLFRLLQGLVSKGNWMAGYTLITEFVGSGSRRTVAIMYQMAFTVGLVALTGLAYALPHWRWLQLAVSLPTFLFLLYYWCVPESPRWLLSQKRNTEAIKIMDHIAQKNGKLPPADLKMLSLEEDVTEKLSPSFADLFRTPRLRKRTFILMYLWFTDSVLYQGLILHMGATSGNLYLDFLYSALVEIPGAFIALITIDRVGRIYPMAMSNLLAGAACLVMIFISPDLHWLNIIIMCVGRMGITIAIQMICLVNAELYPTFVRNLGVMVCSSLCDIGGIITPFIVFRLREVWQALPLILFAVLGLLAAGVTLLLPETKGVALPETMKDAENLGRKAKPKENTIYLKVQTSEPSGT
Nature of the series: cell-based. More on the design: gene SLC22A1. The settings on record: HEK293, read-out: Inhibitory Effects (%) / hOCT1 / 10 μM.

Series [2] can be described thus: inhibition of 3H-MPP uptake in transfected HEK293 cells, % at […]. Format: cell-based, Mus musculus. Particulars: read-out: Inhibitory Effects (%) / hOCT1 / 100 μM.
The target of series [3] is T2, hMATE1 (Homo sapiens, UniProt Q96FL8).
T2 construct: gene SLC47A1; NM_018242.2, stably transfected HEK293 cells
T2 sequence (Q96FL8 1-570): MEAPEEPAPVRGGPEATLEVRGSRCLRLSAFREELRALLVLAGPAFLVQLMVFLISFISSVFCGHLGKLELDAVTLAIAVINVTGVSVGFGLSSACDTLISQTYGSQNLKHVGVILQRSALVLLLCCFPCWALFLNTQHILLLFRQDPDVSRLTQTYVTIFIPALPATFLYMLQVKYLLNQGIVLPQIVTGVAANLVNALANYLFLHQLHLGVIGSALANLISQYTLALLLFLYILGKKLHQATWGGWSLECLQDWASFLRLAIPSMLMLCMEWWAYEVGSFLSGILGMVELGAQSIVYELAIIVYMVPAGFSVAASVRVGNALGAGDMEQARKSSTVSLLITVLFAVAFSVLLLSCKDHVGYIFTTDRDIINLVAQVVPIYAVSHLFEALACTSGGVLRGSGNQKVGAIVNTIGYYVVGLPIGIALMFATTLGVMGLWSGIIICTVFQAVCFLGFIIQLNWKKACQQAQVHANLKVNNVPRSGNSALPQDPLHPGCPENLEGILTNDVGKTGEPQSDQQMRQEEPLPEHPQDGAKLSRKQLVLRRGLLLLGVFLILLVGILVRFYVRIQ
The series is described as follows: inhibition of […]-metformin uptake in transfected HEK293 cells, % at […]. The settings on record: read-out: Inhibitory Effects (%) / hMATE1 / 10 μM. The series is classed as cell-based.

For series [4], the target named is T1, human OCT1 (hOCT1). The series is described as follows: inhibition of 3H-MPP uptake in transfected HEK293 cells. Format: cell-based. More on the design: gene SLC22A1; NM_003057.2, OCT1*1B allele, stably transfected HEK293 cells.
Series [5] concerns the target T3, rat Oct1 (rOct1) (Rattus norvegicus, UniProt Q63089).
T3 construct: gene Slc22a1; NM_012697.1, stably transfected HEK293 cells
T3 sequence (Q63089 1-556): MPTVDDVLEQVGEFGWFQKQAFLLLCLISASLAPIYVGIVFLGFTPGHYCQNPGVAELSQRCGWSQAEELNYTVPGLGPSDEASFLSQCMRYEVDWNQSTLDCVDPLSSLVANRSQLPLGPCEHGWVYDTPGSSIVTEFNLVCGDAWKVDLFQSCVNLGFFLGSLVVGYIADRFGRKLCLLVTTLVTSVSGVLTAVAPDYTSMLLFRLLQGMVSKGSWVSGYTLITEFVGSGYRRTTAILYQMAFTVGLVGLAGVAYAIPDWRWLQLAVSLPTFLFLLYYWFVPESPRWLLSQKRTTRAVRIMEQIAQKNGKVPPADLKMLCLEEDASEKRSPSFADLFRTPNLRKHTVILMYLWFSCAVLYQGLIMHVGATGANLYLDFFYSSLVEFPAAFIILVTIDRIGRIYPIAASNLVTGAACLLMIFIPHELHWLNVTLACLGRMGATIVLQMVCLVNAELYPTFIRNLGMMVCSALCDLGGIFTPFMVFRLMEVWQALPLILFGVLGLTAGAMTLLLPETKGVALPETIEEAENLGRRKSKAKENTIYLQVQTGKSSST
The series is described as above. The series is classed as cell-based.

The target in series [6] is T4, mouse Oct1 (mOct1) (Mus musculus, UniProt O08966).
T4 construct: gene Slc22a1; NM_009202.5, stably transfected HEK293 cells
T4 sequence (O08966 1-556): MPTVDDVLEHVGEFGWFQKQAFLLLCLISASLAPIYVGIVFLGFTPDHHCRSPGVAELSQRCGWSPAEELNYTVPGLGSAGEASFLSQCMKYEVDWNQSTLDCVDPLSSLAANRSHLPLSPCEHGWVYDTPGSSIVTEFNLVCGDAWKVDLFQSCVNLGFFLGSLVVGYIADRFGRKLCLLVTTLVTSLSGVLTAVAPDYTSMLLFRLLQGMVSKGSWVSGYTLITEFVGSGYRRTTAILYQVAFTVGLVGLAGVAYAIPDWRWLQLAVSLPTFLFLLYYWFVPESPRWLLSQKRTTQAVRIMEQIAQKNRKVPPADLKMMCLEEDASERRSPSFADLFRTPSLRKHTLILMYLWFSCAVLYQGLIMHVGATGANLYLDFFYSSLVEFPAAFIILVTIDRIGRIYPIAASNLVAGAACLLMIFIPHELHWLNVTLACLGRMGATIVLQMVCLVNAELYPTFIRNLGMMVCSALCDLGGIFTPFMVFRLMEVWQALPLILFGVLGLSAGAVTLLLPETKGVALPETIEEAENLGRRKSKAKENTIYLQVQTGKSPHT
The series is described as above. The series is classed as cell-based.

Substrate in series [7]: C[n+]1ccc(-c2ccccc2)cc1
Nature of the series: concentration-dependent 3H-MPP uptake, Km. The series is classed as cell-based, Mus musculus.

Substrate in series [8]: C[n+]1ccc(-c2ccccc2)cc1
The series is described as follows: concentration-dependent 3H-MPP uptake, Km. The series is classed as cell-based, Homo sapiens.

Substrate in series [9]: C[n+]1ccc(-c2ccccc2)cc1
Nature of the series: concentration-dependent 3H-MPP uptake, Km. The series is classed as cell-based, Rattus norvegicus.

Like-named read-outs stand apart in the source and are kept apart here.

Regarding `Clc1cccc(Cl)c1N=C1NCCN1` [Clonidine], the inhibition at 10 µM in [1] is 73%.

Turning to `C=CCOC(Cn1ccnc1)c1ccc(Cl)cc1Cl` (stereo not shown) [Imazalil], the inhibition at 10 µM in series [2] was 84%.

As to `CC(=O)N1CCN(c2ccc(OCC3COC(Cn4ccnc4)(c4ccc(Cl)cc4Cl)O3)cc2)CC1` (stereo not shown) [Ketoconazol], the inhibition at 10 µM in series [3] was determined as 87%.

Turning to `CCN1/C(=C/c2ccc3ccccc3[n+]2CC)C=Cc2ccccc21` [decynium22], the IC50 was found to be 12.1 ± 0.8 µM in series [4], 10.5 ± 0.4 µM in series [5] and 5.3 ± 0.4 µM in series [6]. Also, in series [3], the inhibition at 10 µM was determined as 76%.

B1: mouse Oct1 (mOct1) (Mus musculus) (protein)
chain: T4 sequence (O08966 1-556)
notes: NM_009202.5, stably transfected HEK293 cells
Consider B1, for which the Michaelis constant (Km) in [7] is recorded as 36 ± 13 µM.

B2: human OCT1 (hOCT1) (Homo sapiens) (protein)
chain: T1 sequence (O15245 1-554)
notes: NM_003057.2, OCT1*1B allele, stably transfected HEK293 cells
As for B2, in [8], the Michaelis-Menten constant (Km) was found to be 73 ± 7 µM.

B3: rat Oct1 (rOct1) (Rattus norvegicus) (protein)
chain: T3 sequence (Q63089 1-556)
notes: NM_012697.1, stably transfected HEK293 cells
Take B3: the Km in [9] is given as 57 ± 5 µM.
